≈ marks a conversion by molar mass, not a printed value.
Tests used:
[1] = tested on: Multidrug resistant Mtb strains; test: microbe, parasite or virus in culture; assay type: cell-based; conditions: Mycobacterium tuberculosis
[2] = tested on: Extensively drug resistant Mtb strains; test: microbe, parasite or virus in culture; assay type: cell-based; conditions: for MIC: Mycobacterium tuberculosis
[3] = tested on: PAS resistant Mtb: FolC mutants; assay type: cell-based, Mycobacterium tuberculosis

SMILES | MIC [1] [µM] | activity against XDR and PAS resistant strains ([2]; most XDR and PAS resistant strains) | MIC [3] [µM] | MIC [2] [µM]
Nc1cc(O)c(C(=O)O)cc1F [Compound 11, 4-Amino-5-fluoro-2-hydroxybenzoic acid] | 6.3 to 50 (≈ 1.08 to 8.56 µg/mL) | largely inactive | ≥50 | –
Nc1ccc(C(=O)O)c(O)c1 [PAS, para-Aminosalicylic acid] | 0.2 to 3.1 (≈ 0.0306 to 0.475 µg/mL) | – | 12.5 to 50 | –
CC(=O)NC[C@H]1CN(c2ccc(N3CCOCC3)c(F)c2)C(=O)O1 [Linezolid] | 0.8 to 1.4 (≈ 0.27 to 0.472 µg/mL) | – | – | 0.9 to 50 (≈ 0.304 to 16.9 µg/mL)
NNC(=O)c1ccncc1 [Isoniazid] | 0.4 to 19 (≈ 0.0549 to 2.61 µg/mL) | – | 0.3 to 0.4 | 6.3 to 50 (≈ 0.864 to 6.86 µg/mL)

From article PMC8941652 (European journal of medicinal chemistry, 2022)
